Data from patent US20260042762A1 (Kymera Therapeutics, Inc., priority 2018, published 2026).

The molecules below were run against T1, MerTK (Homo sapiens, UniProt Q12866) (assay: MerTk degradation in Jurkat cells (Western blot)). Details: 0.001-1 μM, 4 hour-incubation at 37° C., read-out: Jurkat Max % MerTK Degradation.
T1 construct: endogenous in cells; host or cells: Jurkat cells
T1 sequence (Q12866 21-999): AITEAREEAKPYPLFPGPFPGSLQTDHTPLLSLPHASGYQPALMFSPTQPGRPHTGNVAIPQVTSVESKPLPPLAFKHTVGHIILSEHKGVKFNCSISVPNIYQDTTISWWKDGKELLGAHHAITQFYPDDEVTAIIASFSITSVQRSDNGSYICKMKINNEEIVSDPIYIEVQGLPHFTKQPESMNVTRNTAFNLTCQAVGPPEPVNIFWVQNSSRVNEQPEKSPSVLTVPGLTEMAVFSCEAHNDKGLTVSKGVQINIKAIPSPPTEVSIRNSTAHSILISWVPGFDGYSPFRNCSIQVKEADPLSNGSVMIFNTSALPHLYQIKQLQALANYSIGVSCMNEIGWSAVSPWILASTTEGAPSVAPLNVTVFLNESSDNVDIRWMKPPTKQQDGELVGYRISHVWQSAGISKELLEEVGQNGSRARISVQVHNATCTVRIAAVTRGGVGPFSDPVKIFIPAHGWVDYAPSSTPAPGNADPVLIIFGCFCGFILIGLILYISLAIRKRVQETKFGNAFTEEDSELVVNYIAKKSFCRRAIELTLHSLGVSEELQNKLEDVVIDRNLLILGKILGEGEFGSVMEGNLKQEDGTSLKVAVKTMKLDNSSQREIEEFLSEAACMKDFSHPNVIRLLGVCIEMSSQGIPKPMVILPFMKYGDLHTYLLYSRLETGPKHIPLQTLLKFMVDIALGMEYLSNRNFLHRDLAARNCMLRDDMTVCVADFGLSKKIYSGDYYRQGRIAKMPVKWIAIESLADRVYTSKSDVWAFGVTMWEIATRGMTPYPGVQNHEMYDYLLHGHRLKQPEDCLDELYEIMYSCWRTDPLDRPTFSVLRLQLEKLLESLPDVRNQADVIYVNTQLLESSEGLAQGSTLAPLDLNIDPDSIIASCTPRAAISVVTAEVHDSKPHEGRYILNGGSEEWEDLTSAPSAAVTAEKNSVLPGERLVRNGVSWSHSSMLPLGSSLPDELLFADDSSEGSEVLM
Assay type: cell-based
Protocol: Compounds were reconstituted in DMSO to make 10 mM stock solutions. […] Cells were seeded into 6-well plates with about 5×10^6 cells per well. 2 μL of diluted compounds were added to cells to the final concentration of 0.001-1 μM. After a 4 hour-incubation at 37° C., cells were collected into 2 mL Eppendorf tubes and centrifuged at 1,000 rpm for 5 min. The cell pellets were washed with DPBS (1×) once and resuspended in 60 μL RIPA lysis buffer with Halt Protease and Phophatase Inhibitor Cocktail. The cells were lysed on ice for 10 min, then centrifuged at 14,000 rpm for 10 min at 4° C. and the supernatants were collected for western blots.
The protein concentration of cell lysates was quantified with Pierce™ BCA Protein Assay Kit. […] BCA working reagents were prepared by mixing BCA reagent A with reagent B in 50: 1 ratio. 200 μL of the BCA working reagents were added to 25 μL of BCA standard or cell lysates in microplate, and mixed thoroughly on a plate shaker for 30 seconds. After incubation at 37° C. for 30 min, the absorbance of samples at 562 nm were measured with EnVision Plate Reader.
Protein lysates were prepared in NuPAGE™ LDS sample buffer and NuPAGE™ sample reducing agent, and incubated at 95° C. for 5 min. […] The proteins were transferred to low fluorescence PVDF membranes using the Trans-Blot Turbo Transfer System. Membranes were then blocked in Odyssey blocking buffer at RT for 1 h followed by primary incubation at 4° C. overnight. The primary antibodies were MerTK rabbit monoclonal antibody and actin mouse monoclonal antibody. Membranes were washed three times with TBST (1×), and then incubated with IR Dye 800 CW Goat anti-rabbit and IR Dye 700 CW Goat anti-mouse secondary antibodies in 1:10,000 dilution at RT for 1 h. The Western blot images were obtained using Odyssey Imaging System.

Structure (SMILES) | Dmax [%]
CCCCNc1ncc2c(-c3ccc(CN4CCN(CCCC(=O)NCCCOCCCOCCCc5cccc6c5n(C)c(=O)n6C5CCC(=O)NC5=O)CC4)cc3)cn([C@H]3CC[C@H](O)CC3)c2n1 (stereo partly drawn) [I-8, Trans-4-[4-([4-[2-(butylamino)-7-[4-hydroxycyclohexyl]-7H-pyrrolo[2,3-d]pyrimidin-5-yl]phenyl]methyl)piperazin-1-yl]-N-[3-(3-[3-[1-(2,6-dioxopiperidin-3-yl)-3-methyl-2-oxo-2,3-dihydro-1H-1,3-benzodiazol-4-yl]propoxy]propoxy)propyl]butanamide formic acid] | > 50

Same assay, conditions: Jurkat, 4 h, 0.001-1 μM, 4 hour-incubation at 37° C., read-out: Jurkat Max % MerTK Degradation

Structure (SMILES) | Dmax [%]
COCC(C)Nc1ncc2c(-c3ccc(CN4CCN(CCCCCNCCN[C@H](C(=O)N5C[C@H](O)C[C@H]5C(=O)NCc5ccc(-c6scnc6C)cc5)C(C)(C)C)CC4)cc3)cn([C@H]3CC[C@H](O)CC3)c2n1 (stereo partly drawn) [I-3, (2S,4R)-4-Hydroxy-1-[(2S)-2-([2-[(5-[4-[(4-[2-[(1-methoxypropan-2-yl)amino]-7-(trans-4-hydroxycyclohexyl)-7H-pyrrolo[2,3-d]pyrimidin-5-yl]phenyl)methyl]piperazin-1-yl]pentyl)amino]ethyl]amino)-3,3-dimethylbutanoyl]-N-[[4-(4-methyl-1,3-thiazol-5-yl)phenyl]methyl]pyrrolidine-2-carboxamide] | < 20
COC[C@H](C)Nc1ncc2c(-c3ccc(CN4CCN(CCOCCOCCOCCOCCNc5cccc6c5n(C)c(=O)n6C5CCC(=O)NC5=O)CC4)cc3)cn([C@H]3CC[C@H](O)CC3)c2n1 (stereo partly drawn) [I-4, Trans-3-[4-[15-(4-[[4-(2-[[(2S)-1-methoxypropan-2-yl]amino]-7-[4-hydroxycyclohexyl]-7H-pyrrolo[2,3-d]pyrimidin-5-yl)phenyl]methyl]piperazin-1-yl)-4,7,10,13-tetraoxa-1-azapentadecan-1-yl]-3-methyl-2-oxo-2,3-dihydro-1H-1,3-benzodiazol-1-yl]piperidine-2,6-dione bis(formic acid)] | > 50
COC[C@@H](C)Nc1ncc2c(-c3ccc(CN4CCN(CCOCCOCCOCCOCCNc5cccc6c5n(C)c(=O)n6C5CCC(=O)NC5=O)CC4)cc3)cn([C@H]3CC[C@H](O)CC3)c2n1 (stereo partly drawn) [I-5, Trans-3-[4-[15-(4-[[4-(2-[[(2R)-1-methoxypropan-2-yl]amino]-7-[4-hydroxycyclohexyl]-7H-pyrrolo[2,3-d]pyrimidin-5-yl)phenyl]methyl]piperazin-1-yl)-4,7,10,13-tetraoxa-1-azapentadecan-1-yl]-3-methyl-2-oxo-2,3-dihydro-1H-1,3-benzodiazol-1-yl]piperidine-2,6-dione bis(formic acid)] | < 20
COC[C@H](C)Nc1ncc2c(-c3ccc(CN4CCN(CCOCCOCCOCCOCCNc5cccc6c5C(=O)N(C5CCC(=O)NC5=O)C6=O)CC4)cc3)cn([C@H]3CC[C@H](O)CC3)c2n1 (stereo partly drawn) [I-11, Trans-2-(2,6-dioxopiperidin-3-yl)-4-[15-(4-[[4-(2-[[(2S)-1-methoxypropan-2-yl]amino]-7-[4-hydroxycyclohexyl]-7H-pyrrolo[2,3-d]pyrimidin-5-yl)phenyl]methyl]piperazin-1-yl)-4,7,10,13-tetraoxa-1-azapentadecan-1-yl]-2,3-dihydro-1H-isoindole-1,3-dione] | > 50
CCCCNc1ncc2c(-c3ccc(S(=O)(=O)N4CCN(C(=O)COCCOCCOCCOCC(=O)N[C@H](C(=O)N5C[C@H](O)C[C@H]5C(=O)NCc5ccc(-c6scnc6C)cc5)C(C)(C)C)CC4)cc3)nn([C@H]3CC[C@H](O)CC3)c2n1 [I-31, (2S,4R)-1-((S)-2-(tert-butyl)-17-(4-((4-(6-(butylamino)-1-(trans-4-hydroxycyclohexyl)-1H-pyrazolo[3,4-d]pyrimidin-3-yl)phenyl)sulfonyl)piperazin-1-yl)-4,17-dioxo-6,9,12,15-tetraoxa-3-azaheptadecanoyl)-4-hydroxy-N-(4-(4-methylthiazol-5-yl)benzyl)pyrrolidine-2-carboxamide] | 20 to 50
CCCCNc1ncc2c(-c3ccc(S(=O)(=O)N4CCN(CCOCCOCCOCCOCC(=O)N[C@H](C(=O)N5C[C@H](O)C[C@H]5C(=O)NCc5ccc(-c6scnc6C)cc5)C(C)(C)C)CC4)cc3)nn([C@H]3CC[C@H](O)CC3)c2n1 [I-33, (2S,4R)-1-((S)-2-(tert-butyl)-17-(4-((4-(6-(butylamino)-1-(trans-4-hydroxycyclohexyl)-1H-pyrazolo[3,4-d]pyrimidin-3-yl)phenyl)sulfonyl)piperazin-1-yl)-4-oxo-6,9,12,15-tetraoxa-3-azaheptadecanoyl)-4-hydroxy-N-(4-(4-methylthiazol-5-yl)benzyl)pyrrolidine-2-carboxamide] | > 50
CCCCNc1ncc2c(-c3ccc(CN4CCN(CCOCCOCCOCCOCCNc5cccc6c5n(C)c(=O)n6C5CCC(=O)NC5=O)CC4)cc3)cn([C@H]3CC[C@H](O)CC3)c2n1 (stereo partly drawn) [I-36, trans-3-(4-[15-[4-([4-[2-(butylamino)-7-[4-hydroxycyclohexyl]-7H-pyrrolo[2,3-d]pyrimidin-5-yl]phenyl]methyl)piperazin-1-yl]-4,7,10,13-tetraoxa-1-azapentadecan-1-yl]-3-methyl-2-oxo-2,3-dihydro-1H-1,3-benzodiazol-1-yl)piperidine-2,6-dione] | > 50

Second part, the molecule after the results:

Dmax [%] | Structure (SMILES)
> 50 | CCCCNc1ncc2c(-c3ccc(S(=O)(=O)N4CCN(CCOCCOCCOCCOCCNc5cccc6c5n(C)c(=O)n6C5CCC(=O)NC5=O)CC4)cc3)cn([C@H]3CC[C@H](O)CC3)c2n1 (relative stereo) [I-35, Trans-3-[4-[15-(4-[4-[2-(butylamino)-7-[-4-hydroxycyclohexyl]-7H-pyrrolo[2,3-d]pyrimidin-5-yl]benzenesulfonyl]piperazin-1-yl)-4,7,10,13-tetraoxa-1-azapentadecan-1-yl]-3-methyl-2-oxo-2,3-dihydro-1H-1,3-benzodiazol-1-yl]piperidine-2,6-dione]
> 50 | CCCCNc1ncc(-c2ccc(CN3CCN(C(=O)COCCOCCOCCOCCNc4cccc5c4C(=O)N(C4CCC(=O)NC4=O)C5=O)CC3)cn2)c(N[C@H]2CC[C@H](O)CC2)n1 (stereo partly drawn) [I-22, 4-[15-[4-([6-[2-(Butylamino)-4-[[trans-4-hydroxycyclohexyl]amino]pyrimidin-5-yl]pyridin-3-yl]methyl)piperazin-1-yl]-15-oxo-4,7,10,13-tetraoxa-1-azapentadecan-1-yl]-2-(2,6-dioxopiperidin-3-yl)-2,3-dihydro-1H-isoindole-1,3-dione]
> 50 | CCCCNc1ncc2c(-c3ccc(S(=O)(=O)N4CCN(C(=O)COCCOCCOCCOCCNc5cccc6c5C(=O)N(C5CCC(=O)NC5=O)C6=O)CC4)cc3)nn([C@H]3CC[C@H](O)CC3)c2n1 (stereo partly drawn) [I-32, 4-((14-(4-((4-(6-(butylamino)-1-(trans-4-hydroxycyclohexyl)-1H-pyrazolo[3,4-d]pyrimidin-3-yl)phenyl)sulfonyl)piperazin-1-yl)-14-oxo-3,6,9,12-tetraoxatetradecyl)amino)-2-(2,6-dioxopiperidin-3-yl)isoindoline-1,3-dione]
> 50 | CCCCNc1ncc2c(-c3ccc(S(=O)(=O)N4CCN(CCOCCOCCOCCOCCNc5cccc6c5C(=O)N(C5CCC(=O)NC5=O)C6=O)CC4)cc3)nn([C@H]3CC[C@H](O)CC3)c2n1 (stereo partly drawn) [I-34, 4-((14-(4-((4-(6-(butylamino)-1-(trans-4-hydroxycyclohexyl)-1H-pyrazolo[3,4-d]pyrimidin-3-yl)phenyl)sulfonyl)piperazin-1-yl)-3,6,9,12-tetraoxatetradecyl)amino)-2-(2,6-dioxopiperidin-3-yl)isoindoline-1,3-dione]
